Test results published in US20040220220A1, “Method for treating inflammatory bowel disease” (priority 2001, published 2004).
Several values for one entry are separate records, joined by “and”; a condition that tells them apart may be missing. Equal entries are not always repeated.

Assays:
[1] = asthma, oral HCQ; cited from earlier work
[2] = conventional oral doses 4-6 mg/kg/day, after 3 months therapy, two clinical trials; cited from earlier work
[3] = Single-dose intravenous HCQ pharmacokinetics in rats; type: in vivo; conditions: for Tmax / Vd / clearance / half-life / AUC(0-inf) / Cmax / AUC(0-t): both sexes, rat, whole blood; for Tmax / Vd / clearance / AUC(0-inf) / Cmax / AUC(0-t): single day; for half-life: 2-compartment model, read-out: Apparent Terminal t1/2 (converted); for AUC(0-t): read-out: AUC0-23
Method: Twelve rats per dose group (six M: six F) received hydroxychloroquine sulfate, USP as an intravenous bolus injected over 30 minutes.
Following the single injection, blood samples were drawn from rat pairs at one, three, six, 12, 24, 36, 48, 192, 360, and 1,032 hours.

leukocytes = conditions: ex vivo and in vitro experiments; cited from earlier work
[4] = lupus erythematosus and rheumatoid arthritis; cited from earlier work
Human eosinophils [5] = experiment: IL-5 stimulated eosinophil degranulation, EDN release by DARIA; type: cell-based
Source text: FIG. 2 graphically depicts the effect of HCQ on IL-5 stimulated eosinophil degranulation as measured by release of eosinophil-derived neurotoxin. In this figure, EDN refers to eosinophil-derived neurotoxin.
(§1) Human eosinophils were isolated from atopic and non-atopic donors using density centrifugation and CD16-magnetic bead negative selection. Eosinophil purity was always>93%.
The general procedure described hereinabove and Example 1 was followed. Supernatants from superoxide assay samples were analyzed for EDN by Double-Antibody Radioimmunoassay (DARIA). The results are depicted in FIG. 2.

[6] = Single-dose intravenous HCQ pharmacokinetics in dogs; type: in vivo, Beagle dogs; conditions: for AUC(0-inf) / Cmax / AUC(0-t) / half-life / Tmax / Vd / clearance: both sexes, beagle, dog, whole blood; for AUC(0-inf) / Cmax / AUC(0-t) / Tmax / Vd / clearance: single day; for AUC(0-t): read-out: AUC0-23; for half-life: 2-compartment model, read-out: Apparent terminal t1/2 (converted)
Method: Two Beagle dogs per dose group (one M: one F) received hydroxychloroquine sulfate, USP as an intravenous bolus infusion over 30 minutes.
Following the single injection, blood samples were drawn at one, two, three, five, six, seven, eight, 12, 18, 24, 36, 120, 192, 264, 360, 528, 696, 864 and 1,032 hours.

[7] = system: human tracheal epithelial cells; experiment: Pro-inflammatory mRNA in tracheal epithelial cultures infected with RV16, RT-PCR; type: cell-based; conditions: 50 microM HCQ, RV16 infection
Method: Differentiated cultures of human tracheal cells grown at an air liquid interface were pre-incubated for 12h with 50 microM HCQ prior to 12 h infection with human rhinovirus type 16 (HRV-16). Twelve hours after removal of virus, levels of mRNA for RANTES, ICAM-1, IL-1beta, TNF-alpha and IL-6 were quantified using multiplex two-step (TaqMan) RT-PCR. The results are depicted in FIGS. 6-10.
(§2) FIG. 6 graphically depicts the effects of HCQ on the release of RANTES (regulated on activation normal T-cell expressed and secreted) in cultured human tracheal epithelial cells. In the figure, RV16-p3 refers to the rhinovirus strain. Human tracheal epithelial cells were cultured for 14 days in serum-free growth media. On day 14, the cultures were divided into four groups. Two groups were pre-treated for 6 hours with HCQ (final concentration 50 microM) in media administered via the basolateral side. Then RV-16-p3 at a tissue culture infectious dose (TCID50) of 10^6/ml was added to one of groups receiving HCQ and one of thgroups not pretreated with HCQ. Phosphate buffered saline (PBS) was added to the other two groups, creating four conditions: media alone (control), HCQ alone, RV-16-p3 alone and RV-16-p3+HCQ. After six hours, the experimental suspensions were removed and the cells were washed three times with PBS. Cells were allowed to recover for 24h and then the mucosal surfaces of the culture inserts were flushed with 500 microL of PBS and the flushings were retained.
The filters containing the cell sheets were cut in half and placed in RLT buffer (Rneasy lysis buffer) or fixed in 10% buffered formalin prior to their preparation for fluorescence in situ hybridization (FISH) and gene expression analysis as described in detail elsewhere (Lopez-Souza N, et al., Resistance of differentiated human airway epithelium to infection by rhinovirus, Am J Physiol Lung Cell Mol Physiol, 2004;286:L373-81). Levels of mRNA for RANTES were determined in cell lysates using a two-step method of gene transcript profiling in which multiplex RT-PCR is combined with individual gene quantification via real-time PCR on generated cDNA product.
as §2, with “FIG. 7” for “FIG. 6”, “the upregulation” for “the release”, “of for intercellular adhision molecule 1 (ICAM-1)” for “of RANTES (regulated on activation normal T-cell expressed and secreted)”, “strain. ICAM refers to intracellular adhesion molecule 1.” for “strain.”, “of the groups” for “of thgroups”
FIG. 8 graphically depicts the effects of HCQ on the release of IL-1beta and TNF-alpha in cultured human tracheal epithelial cells. In the figure, RV16-p3 refers to the rhinovirus strain. IL-1 beta refers to Interleukin-1 beta. […]

[8] = system: Primary Human Epithelial Cells (tonsillar); experiment: IP-10/RANTES production in primary epithelial cells exposed to HRV-16; type: cell-based
Method: Primary cultures of harvested human tonsillar epithelial cells were preincubated for 24 hr with 50 microM HCQ. The cells were then exposed to human rhinovirus type 16 (HRV-16) which was left on the cells in the presence and absence of HCQ. Medium was recovered at two different time post infection (24 hr viral incubation and 48 hr viral incubation) and assayed for IP-10 and RANTES. The data is depicted in Table 1 below and in FIG. 5.

BEAS-2B epithelial cells = experiment: IP-10/RANTES production in BEAS-2B cells exposed to HRV-16; type: cell-based; conditions: 48 hr
Method: Cells of the BEAS-2B epithelial cell line were preincubated for either 6 hr or 24 hr with varying concentrations of HCQ. Cells were then exposed to human rhinovirus type 16 (HRV-16) which was left on the cells in the presence and absence of HCQ at the concentrations indicated for 48 hr. The data is depicted in Table 2 and FIG. 13.

Human eosinophils [9] = experiment: IL-5 stimulated eosinophil survival by flow cytometry; type: cell-based; conditions: 100 pg/ml IL-5, four days, compared with dexamethasone
Method: as §1
Flow cytometry was performed on a Becton Dickenson FACScan. Data was analyzed using CellQuest software. For cell surface marker determination, specific antibodies directly conjugated with the fluorescent indicator, phycoerythrin (PE) were utilized.
The general procedure described hereinabove was followed. Eosinophils were incubated with 100 pg/ml IL-5 with or without dexamethasone or HCQ. After four days, eosinophil viability was measured by flow cytometry. The results are depicted in FIG. 3.

[10] = system: neutrophil, macrophages, T cell; conditions: at concentrations in the range obtained by targeted delivery; cited from earlier work
Human eosinophils [11] = experiment: Eosinophil extracellular superoxide production (cytochrome c); type: cell-based; conditions: 1 hr pretreatment at 37° C.; IL-5 or PAF stimulus
Method: as §1
Statistical analyses were performed using the Student's paired t-test; significance defined as p value<0.05 compared to “nil” or 0.0 microM HCQ.
The general procedure described hereinabove was followed. Eosinophils were pretreated with HCQ for 1 hr at 37° C. and then stimulated as described in FIG. 1 in 96-well plates (50,000 cells/well). Extracellular superoxide was detected using cytochrome c and a 96-well plate reader.

[12] = rats, intravenous, 10 mg/kg/day

SMILES: CCN(CCO)CCCC(C)Nc1ccnc2cc(Cl)ccc12 (centres unmarked) [HCQ, hydroxychloroquine]
- treatment time before therapeutic effect begins [1]: 24-26 weeks
- therapeutic benefit in IBD [2]: in neither was a consistent therapeutic benefit evident
- Tmax ([3]; rats, intravenous, 5 mg/kg/day): 0.5 h
- Vd ([3]; rats, intravenous, 5 mg/kg/day): 11.1 L/kg
- clearance ([3]; rats, intravenous, 5 mg/kg/day): 20 mL/min/kg
- half-life ([3]; rats, intravenous, 5 mg/kg/day): 7.5 h
- Tmax [3, 12]: 0.5 h
- Vd [3, 12]: 11.2 L/kg
- clearance [3, 12]: 21.7 mL/min/kg
- half-life [3, 12]: 7.4 h
- AUC(0-inf) ([3]; rats, intravenous, 5 mg/kg/day): 6560 ng·h/mL
- Cmax ([3]; rats, intravenous, 5 mg/kg/day): 1020 ng/mL
- AUC(0-t) ([3]; rats, intravenous, 5 mg/kg/day): 4050 ng·h/mL
- AUC(0-inf) [3, 12]: 11000 ng·h/mL
- Cmax [3, 12]: 1740 ng/mL
- AUC(0-t) [3, 12]: 7220 ng·h/mL
- peak concentrations as fraction of those required ([3]; rats and dogs, intravenous, versus concentrations needed for in vitro effects): 1/100
- peak serum concentrations ([3]; rats, intravenous 10 mg/kg): 2 µg/mL
- incubation time to effect on leukocytes (leukocytes): less than 1 hour
- onset of action [4]: 3-4 months
- HCQ concentration at which eosinophil degranulation is inhibited (Human eosinophils [5]): > 100 µM
- peak whole blood concentrations [6]: less than 3 mcg/ml
- AUC(0-inf) ([6]; 5 mg/kg/day): 24200 ng·h/mL
- Cmax ([6]; 5 mg/kg/day): 1200 ng/mL
- AUC(0-t) ([6]; 5 mg/kg/day): 8160 ng·h/mL
- AUC(0-inf) ([6]; 10 mg/kg/day): 82100 ng·h/mL
- Cmax ([6]; 10 mg/kg/day): 2700 ng/mL
- AUC(0-t) ([6]; 10 mg/kg/day): 30900 ng·h/mL
- half-life ([6]; 5 mg/kg/day): 20.8 h
- Tmax ([6]; 5 mg/kg/day): 0.5 h
- Vd ([6]; 5 mg/kg/day): 9.1 L/kg
- clearance ([6]; 5 mg/kg/day): 5 mL/min/kg
- half-life ([6]; 10 mg/kg/day): 35 h
- Tmax ([6]; 10 mg/kg/day): 0.5 h
- Vd ([6]; 10 mg/kg/day): 6.1 L/kg
- clearance ([6]; 10 mg/kg/day): 1.67 mL/min/kg
- release of IL-1beta [7]: rapidly block
- release of IL-6 [7]: rapidly block
- release of IL-8 [7]: rapidly block
- release of TNF-alpha [7]: rapidly block
- up-regulation of ICAM-1 [7]: rapidly block
- IP-10: hrs of preincubation 24 ([8]; HRV-16 + 50 microM HCQ, 24): 31 pg/mL
- IP-10: hrs of preincubation 48 ([8]; HRV-16 + 50 microM HCQ, 48): 112 pg/mL
- RANTES: hrs of preincubation 48 ([8]; HRV-16 + HCQ, 48): 509 pg/mL
- IP-10: 6 hrs preincubation (BEAS-2B epithelial cells; HRV-16 + 0.01 mM HCQ): 3084 pg/mL
- IP-10: 24 hrs preincubation (BEAS-2B epithelial cells; HRV-16 + 0.01 mM HCQ): 2506 pg/mL
- RANTES: 6 hrs preincubation (BEAS-2B epithelial cells; HRV-16 + 0.01 mM HCQ): 3326 pg/mL
- IP-10: 6 hrs preincubation (BEAS-2B epithelial cells; HRV-16 + 0.1 mM HCQ): 2914 pg/mL
- IP-10: 24 hrs preincubation (BEAS-2B epithelial cells; HRV-16 + 0.1 mM HCQ): 1814 pg/mL
- RANTES: 6 hrs preincubation (BEAS-2B epithelial cells; HRV-16 + 0.1 mM HCQ): 3128 pg/mL
- IP-10: 6 hrs preincubation (BEAS-2B epithelial cells; HRV-16 + 1 mM HCQ): 3045 pg/mL
- IP-10: 24 hrs preincubation (BEAS-2B epithelial cells; HRV-16 + 1 mM HCQ): 2098 pg/mL
- RANTES: 6 hrs preincubation (BEAS-2B epithelial cells; HRV-16 + 1 mM HCQ): 1994 pg/mL
- IP-10: 6 hrs preincubation (BEAS-2B epithelial cells; HRV-16 + 50 mM HCQ): 31 pg/mL
- IP-10: 24 hrs preincubation (BEAS-2B epithelial cells; HRV-16 + 50 mM HCQ): 31 pg/mL
- RANTES: 6 hrs preincubation (BEAS-2B epithelial cells; HRV-16 + 50 mM HCQ): 0 pg/mL
- eosinophil survival (Human eosinophils [9]): actively shortens eosinophil survival, to a much greater extent than a comparative dose of dexamethasone
- neutrophil and macrophage superoxide release, macrophage release of TNF-alpha, IL-6, Interferon-gamma and T cell activation [10]: inhibited
- HCQ concentration at which IL-5 or PAF induced eosinophil superoxide is inhibited (Human eosinophils [11]): at least 0.5 mM and ≥ 200 mcg/ml
